Reference: patent US11542259B2, “Compounds for the treatment of kinase-dependent disorders” (Exelixis, Inc., priority 2018, dated 2023)

What was measured:
[1] = molecular target: Human Met (residues R974-S1390 with A1209G and V1290L) (Homo sapiens, UniProt P08581); experiment: Human Met kinase assay (33P radiometric, KinaseProfiler); type: biochemical; settings: 10 μM ATP, read-out: c-Met IC50
Experimental: (§1) Kinase activity and compound inhibition were investigated using the ^33P-Phosphoryl transfer radiometric kinase assay, performed using the KinaseProfiler™ service of Eurofins Pharma Discovery Services UK Limited. Dose-response experiments were performed using nine compound concentrations in a 96-well microtiter plate. For each assay, all compounds were prepared to a 50× final assay concentration (50 μM) in 100% DMSO, then diluted in a half-log series, with the final top concentration at 1 μM. This working stock of the compound was added to the assay well as the first component in the reaction, followed by the remaining components as detailed in the following assay protocols below. The positive control wells (100% kinase activity) contain all components of the reaction including 2% DMSO (control for solvent effects), except the compound of interest. Blank wells contain all components of the reaction, with the reference inhibitor, staurosporine. This reference compound was used to abolish kinase activity and generated the 0% kinase activity base-line. IC50 values were calculated by nonlinear regression analysis using the sigmoidal dose-response (variable slope) curve fit on XLFit version 5.3 (ID Business Solutions).
Human Met (residues R974-S1390 with A1209G and V1290L, 3.4 nM) was incubated with 8 mM MOPS pH 7.0, 0.2 mM EDTA, 250 μM KKKGQEEEYVFIE (SEO ID NO. 45), 1 mM sodium orthovanadate, 5 mM […], 10 mM magnesium acetate, and 10 μM [γ-33P-ATP]. The reaction was initiated by the addition of the Mg/ATP mix. After incubation for 40 minutes at room temperature, the reaction was stopped by the addition of phosphoric acid to a concentration of 0.5%. A reaction aliquot of […] was then spotted onto a P30 filtermat and washed four times for 4 minutes in 0.425% phosphoric acid and once in methanol prior to drying and scintillation counting. Incorporated 33P was measured using the Wallac Microbeta scintillation counter (Perkin Elmer).

[2] = molecular target: Human Axl (residues H473-A894 with Q764R) (Homo sapiens (Human), UniProt P30530, Q764R); experiment: Human AXL kinase assay (33P radiometric, KinaseProfiler); type: biochemical; settings: 10 μM ATP
Human Axl (residues H473-A894 with Q764R), sequence (P30530 473-894 Q764R): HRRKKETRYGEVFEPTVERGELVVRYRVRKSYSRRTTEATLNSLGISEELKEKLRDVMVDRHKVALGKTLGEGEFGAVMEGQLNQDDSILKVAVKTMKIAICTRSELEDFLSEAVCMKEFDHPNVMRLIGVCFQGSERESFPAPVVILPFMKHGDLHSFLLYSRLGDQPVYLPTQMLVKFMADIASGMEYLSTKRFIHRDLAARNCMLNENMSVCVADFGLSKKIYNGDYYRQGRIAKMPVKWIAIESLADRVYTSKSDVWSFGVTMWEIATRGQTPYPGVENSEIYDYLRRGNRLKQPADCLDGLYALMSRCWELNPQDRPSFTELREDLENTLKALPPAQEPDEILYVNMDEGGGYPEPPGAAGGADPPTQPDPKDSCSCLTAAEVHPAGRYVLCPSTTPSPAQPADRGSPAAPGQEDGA
Experimental: as §1
Human Axl (residues H473-A894 with Q764R, 161 nM) was incubated with 8 mM MOPS pH 7.0, 0.2 mM EDTA, 250 μM KKSRGDYMTMQIG (SEO ID NO. 43) 10 mM magnesium acetate and 10 μM [γ-33P-ATP]. The reaction was initiated by the addition of the Mg/ATP mix. After incubation for 40 minutes at room temperature, the reaction was stopped by the addition of phosphoric acid to a concentration of 0.5%. A reaction aliquot of 10 μL was then spotted onto a P30 filtermat and washed four times for 4 minutes in 0.425% phosphoric acid and once in methanol prior to drying and scintillation counting. Incorporated ^33P was measured using the Wallac Microbeta scintillation counter (Perkin Elmer).

[3] = molecular target: Human Mer (residues R557-E882 with H628Q and R794A) (Homo sapiens (Human), UniProt Q12866); experiment: Human Mer kinase assay (33P radiometric, KinaseProfiler); type: biochemical; settings: 10 μM ATP
Human Mer (residues R557-E882 with H628Q and R794A), sequence (Q12866 557-882, stated change not applied): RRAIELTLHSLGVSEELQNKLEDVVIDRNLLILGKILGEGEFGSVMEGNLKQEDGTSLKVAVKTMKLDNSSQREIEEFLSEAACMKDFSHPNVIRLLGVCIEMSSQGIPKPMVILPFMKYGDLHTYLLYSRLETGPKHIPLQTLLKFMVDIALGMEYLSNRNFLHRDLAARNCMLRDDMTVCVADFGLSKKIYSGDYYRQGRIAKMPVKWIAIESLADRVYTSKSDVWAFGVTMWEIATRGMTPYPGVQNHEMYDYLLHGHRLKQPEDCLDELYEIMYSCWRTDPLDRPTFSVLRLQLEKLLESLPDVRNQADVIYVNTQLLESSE
Experimental: as §1
Human Mer (residues R557-E882 with H628Q and R794A, 0.7 nM) was incubated with 8 mM MOPS pH 7.0, 0.2 mM EDTA, 30 mM NaCl, 250 μM GGMEDIYFEFMGGKKK (SEO ID NO. 44). 10 mM magnesium acetate, and 10 μM [γ-^33P-ATP]. The reaction was initiated by the addition of the Mg/ATP mix. After incubation for 40 minutes at room temperature, the reaction was stopped by the addition of phosphoric acid to a concentration of 0.5%. A reaction aliquot of 10 μL was then spotted onto a P30 filtermat and washed four times for 4 minutes in 0.425% phosphoric acid and once in methanol prior to drying and scintillation counting. Incorporated ^33P was measured using the Wallac Microbeta scintillation counter (Perkin Elmer).

KDR = KDR (Homo sapiens (Human), UniProt P35968); experiment: KDR autophosphorylation ELISA in HUVEC cells; type: cell-based; settings: cellular, VEGF165 stimulated
KDR, sequence (P35968 20-1356): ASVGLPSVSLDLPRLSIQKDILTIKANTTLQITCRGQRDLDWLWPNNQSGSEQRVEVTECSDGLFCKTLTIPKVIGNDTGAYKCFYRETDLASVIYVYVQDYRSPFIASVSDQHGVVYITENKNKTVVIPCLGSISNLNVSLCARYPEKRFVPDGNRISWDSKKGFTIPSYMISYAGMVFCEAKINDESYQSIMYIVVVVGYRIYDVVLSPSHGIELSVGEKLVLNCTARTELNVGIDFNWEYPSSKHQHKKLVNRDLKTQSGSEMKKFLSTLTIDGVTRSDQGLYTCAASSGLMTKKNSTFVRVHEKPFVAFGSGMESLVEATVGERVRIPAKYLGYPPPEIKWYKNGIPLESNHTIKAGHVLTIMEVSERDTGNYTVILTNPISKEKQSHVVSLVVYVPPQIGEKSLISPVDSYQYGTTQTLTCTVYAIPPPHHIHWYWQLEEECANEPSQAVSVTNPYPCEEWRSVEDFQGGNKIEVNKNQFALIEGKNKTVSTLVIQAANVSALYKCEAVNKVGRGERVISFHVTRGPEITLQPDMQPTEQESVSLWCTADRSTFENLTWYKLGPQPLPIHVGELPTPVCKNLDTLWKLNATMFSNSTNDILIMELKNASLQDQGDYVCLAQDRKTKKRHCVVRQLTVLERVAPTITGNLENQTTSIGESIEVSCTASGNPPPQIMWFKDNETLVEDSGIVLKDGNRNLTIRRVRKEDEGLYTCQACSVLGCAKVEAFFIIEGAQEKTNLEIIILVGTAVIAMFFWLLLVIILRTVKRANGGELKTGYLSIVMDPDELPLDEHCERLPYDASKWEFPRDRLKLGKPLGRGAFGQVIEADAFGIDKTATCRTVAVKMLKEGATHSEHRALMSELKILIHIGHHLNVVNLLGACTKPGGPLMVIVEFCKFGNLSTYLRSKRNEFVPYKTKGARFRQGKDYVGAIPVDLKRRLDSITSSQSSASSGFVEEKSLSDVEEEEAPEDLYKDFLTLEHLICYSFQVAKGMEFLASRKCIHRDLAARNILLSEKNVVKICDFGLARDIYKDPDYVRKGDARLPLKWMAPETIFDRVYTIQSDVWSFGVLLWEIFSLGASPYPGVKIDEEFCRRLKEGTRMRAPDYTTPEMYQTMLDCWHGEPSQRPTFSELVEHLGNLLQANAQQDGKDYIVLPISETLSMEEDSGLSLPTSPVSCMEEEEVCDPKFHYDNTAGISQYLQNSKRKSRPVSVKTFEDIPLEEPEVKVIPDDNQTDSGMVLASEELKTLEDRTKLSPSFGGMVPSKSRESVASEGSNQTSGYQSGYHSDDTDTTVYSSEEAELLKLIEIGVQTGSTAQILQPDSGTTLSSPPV
Experimental: Human umbilical vein endothelial cells or HUVEC (Lonza #C2519A) were seeded at 2×10^4 cells/well onto 96-well plates (Corning #3904), in EGM-2 growth medium (Lonza #CC-3162) containing 1% Penicillin Streptomycin (Thermo Fisher #15140-122). HUVEC cells were incubated at 37° C., 5% CO2 for 24 h and then starved for 24 h in serum-free EBM-2 basal medium (Lonza #CC-3156) containing 1% Penicillin Streptomycin. Test compounds were serially diluted to produce an 8-point dose curve in fresh serum-free medium to a final concentration of 0.3% DMSO (vehicle) and added to the cells and incubated for 1 h. Cells were then stimulated with 100 ng/mL recombinant human VEGF165 (R&D Systems #293-VE-500) for 5 min, washed with cold PBS, and immediately lysed with 130 μL of cold 1× lysis buffer [20 mM Tris, 137 mM sodium chloride, 2 mM EDTA, 10% glycerol, 1% NP-40 alternative, 1 mM activated sodium orthovanadate, 1 mM PefaBloc SC (Sigma-Aldrich #11429868001), protease/phosphatase inhibitor tablet (Thermo Fisher #A32959)]. Lysates were collected and 100 μL/well added into the human phospho-KDR DuoSet IC ELISA (R&D Systems #DYC1766-2). Assay was performed according to manufacturer's instructions and sample phospho-KDR concentrations were extrapolated using human phospho-KDR control (R&D Systems #841421) as a standard. Positive control wells (100% activity) contained VEGF165-stimulated, DMSO-treated cell lysates. Negative control wells (0% activity) contained non-stimulated cell lysates. IC50 values were calculated by nonlinear regression analysis using a 4-parameter logistic curve fit in ActivityBase XE (IDBS).

Met = Met (Homo sapiens (Human), UniProt P08581); experiment: Met autophosphorylation ELISA in PC-3 cells; type: cell-based; settings: cellular, HGF stimulated, read-out: c-Met IC50
Met, sequence (P08581 25-1390): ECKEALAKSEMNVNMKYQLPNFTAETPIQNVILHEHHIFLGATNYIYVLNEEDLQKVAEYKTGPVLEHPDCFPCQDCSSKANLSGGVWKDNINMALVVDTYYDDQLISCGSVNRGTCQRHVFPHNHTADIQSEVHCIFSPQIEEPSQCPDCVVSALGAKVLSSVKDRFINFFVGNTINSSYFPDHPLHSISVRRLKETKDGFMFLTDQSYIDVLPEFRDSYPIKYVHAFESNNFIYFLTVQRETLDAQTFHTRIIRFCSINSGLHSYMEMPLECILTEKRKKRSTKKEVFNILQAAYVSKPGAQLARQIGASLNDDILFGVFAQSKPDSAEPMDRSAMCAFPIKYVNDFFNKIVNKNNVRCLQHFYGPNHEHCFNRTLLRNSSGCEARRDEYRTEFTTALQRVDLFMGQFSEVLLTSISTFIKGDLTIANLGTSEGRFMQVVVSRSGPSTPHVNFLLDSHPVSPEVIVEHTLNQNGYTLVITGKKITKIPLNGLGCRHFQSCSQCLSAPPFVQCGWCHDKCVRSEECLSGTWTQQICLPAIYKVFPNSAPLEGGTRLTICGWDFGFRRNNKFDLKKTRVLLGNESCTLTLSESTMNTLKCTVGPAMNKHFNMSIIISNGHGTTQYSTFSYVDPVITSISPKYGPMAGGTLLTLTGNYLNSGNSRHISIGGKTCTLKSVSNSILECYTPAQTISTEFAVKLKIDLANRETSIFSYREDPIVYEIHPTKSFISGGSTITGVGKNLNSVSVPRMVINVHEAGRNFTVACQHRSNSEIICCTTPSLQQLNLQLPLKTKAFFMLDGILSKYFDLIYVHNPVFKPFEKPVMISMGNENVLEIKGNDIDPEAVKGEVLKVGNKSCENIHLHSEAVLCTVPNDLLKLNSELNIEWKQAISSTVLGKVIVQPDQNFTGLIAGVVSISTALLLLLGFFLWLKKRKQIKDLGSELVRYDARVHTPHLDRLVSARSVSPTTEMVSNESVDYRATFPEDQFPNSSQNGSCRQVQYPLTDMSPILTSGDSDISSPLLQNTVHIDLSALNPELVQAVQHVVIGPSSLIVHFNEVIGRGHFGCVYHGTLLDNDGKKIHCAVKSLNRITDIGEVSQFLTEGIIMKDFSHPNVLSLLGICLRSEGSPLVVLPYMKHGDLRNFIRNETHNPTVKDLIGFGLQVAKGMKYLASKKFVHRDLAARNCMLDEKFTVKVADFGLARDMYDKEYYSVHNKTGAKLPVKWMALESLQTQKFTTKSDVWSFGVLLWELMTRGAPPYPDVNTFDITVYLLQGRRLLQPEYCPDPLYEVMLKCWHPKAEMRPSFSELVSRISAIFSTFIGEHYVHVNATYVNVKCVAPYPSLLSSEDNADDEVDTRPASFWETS
Experimental: PC-3 prostate cancer cells (ATCC #CRL-1435) were seeded at 4×10^4 cells/well onto 24-well plates (Greiner #662165), in DMEM (Thermo Fisher #11995-040) containing 10% FBS (Thermo Fisher #26140-079), 1% MEM NEAA (Thermo Fisher #11140-050), 1% GlutaMax (Thermo Fisher #35050-061), and 1% Penicillin Streptomycin (Thermo Fisher #15140-122). PC-3 cells were incubated at 37° C., 5% CO2 for 24 h and then starved for 3 h in serum-free medium. Test compounds were serially diluted to produce an 8-point dose curve in fresh serum-free medium to a final concentration of 0.3% DMSO (vehicle) and added to the cells and incubated for 1 h. Cells were then stimulated with 100 ng/mL recombinant human HGF (R&D Systems #294-HG-250) for 10 min, washed with cold PBS and immediately lysed with 130 μL of cold 1× lysis buffer [20 mM Tris, 137 mM sodium chloride, 2 mM EDTA, 10% glycerol, 1% NP-40 alternative, 1 mM activated sodium orthovanadate, 1 mM PefaBloc SC (Sigma-Aldrich #11429868001), protease/phosphatase inhibitor tablet (Thermo Fisher #A32959)]. Lysates were clarified by centrifugation and 100 μL/well added into the PathScan phospho-Met (panTyr) Sandwich ELISA (Cell Signaling Technology #7333). Assay was performed according to manufacturer's instructions. Positive control wells (100% activity) contained HGF-stimulated, DMSO-treated cell lysates. Negative control wells (0% activity) contained HGF-stimulated, reference inhibitor-treated cell lysates. IC50 values were calculated by nonlinear regression analysis using a 4-parameter logistic curve fit in ActivityBase XE (IDBS).

AXL = AXL (Homo sapiens (Human), UniProt P30530); experiment: AXL autophosphorylation ELISA in A-172 cells; type: cell-based; settings: cellular, Gas6 stimulated
AXL, sequence (P30530 26-894): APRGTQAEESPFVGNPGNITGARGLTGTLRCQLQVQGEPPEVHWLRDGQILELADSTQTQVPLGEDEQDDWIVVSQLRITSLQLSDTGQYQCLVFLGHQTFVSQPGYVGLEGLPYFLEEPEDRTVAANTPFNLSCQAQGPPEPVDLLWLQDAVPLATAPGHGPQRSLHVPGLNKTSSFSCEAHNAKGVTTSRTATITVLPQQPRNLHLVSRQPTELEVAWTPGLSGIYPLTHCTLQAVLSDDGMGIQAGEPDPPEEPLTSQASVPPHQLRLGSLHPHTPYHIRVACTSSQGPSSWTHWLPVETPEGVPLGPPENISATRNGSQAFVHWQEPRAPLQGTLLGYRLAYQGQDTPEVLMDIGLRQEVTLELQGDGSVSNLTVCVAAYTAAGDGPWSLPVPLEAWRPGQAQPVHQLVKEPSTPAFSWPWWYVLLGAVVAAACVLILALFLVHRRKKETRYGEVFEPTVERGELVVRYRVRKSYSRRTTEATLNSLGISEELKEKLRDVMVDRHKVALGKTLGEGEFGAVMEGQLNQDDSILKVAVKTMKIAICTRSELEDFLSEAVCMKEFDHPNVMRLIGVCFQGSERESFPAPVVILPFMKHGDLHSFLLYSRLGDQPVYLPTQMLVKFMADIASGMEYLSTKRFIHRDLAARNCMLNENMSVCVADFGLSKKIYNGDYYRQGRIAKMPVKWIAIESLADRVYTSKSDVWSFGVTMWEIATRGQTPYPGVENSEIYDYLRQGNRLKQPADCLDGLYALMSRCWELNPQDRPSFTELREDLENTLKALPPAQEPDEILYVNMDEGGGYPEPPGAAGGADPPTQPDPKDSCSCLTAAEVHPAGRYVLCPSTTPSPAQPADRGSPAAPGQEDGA
Experimental: A-172 glioblastoma cells (ATCC #CRL-1620) were seeded at 2.5×10^5 cells/well onto 24-well plates (Greiner #662165), in DMEM (Thermo Fisher #11995-040) containing 10% FBS (Thermo Fisher #26140-079), 1% MEM NEAA (Thermo Fisher #11140-050), 1% GlutaMax (Thermo Fisher #35050-061) and 1% Penicillin Streptomycin (Thermo Fisher #15140-122). A-172 cells were incubated at 37° C., 5% CO2 for 24 h and then starved for 24 h in serum-free medium. Test compounds were serially diluted to produce an 8-point dose curve in fresh serum-free medium to a final concentration of 0.3% DMSO (vehicle) and added to the cells and incubated for 1 h. Cells were then stimulated with 1 μg/mL recombinant human Gas6 (R&D Systems #885-GSB-500) for 15 min, washed with cold PBS and immediately lysed with 150 μL of cold 1× lysis buffer [20 mM Tris, 137 mM sodium chloride, 2 mM EDTA, 10% glycerol, 1% NP-40 alternative, 1 mM activated sodium orthovanadate, 1 mM PefaBloc SC (Sigma-Aldrich #11429868001), protease/phosphatase inhibitor tablet (Thermo Fisher #A32959)]. Lysates were collected and 100 μL/well added into the human phospho-AXL DuoSet IC ELISA (R&D Systems #DYC2228-2). Assay was performed according to manufacturer's instructions and sample phospho-AXL concentrations were extrapolated using human phospho-AXL control (R&D Systems #841645) as a standard. Positive control wells (100% activity) contained Gash-stimulated, DMSO-treated cell lysates. Negative control wells (0% activity) contained Gash-stimulated, reference inhibitor-treated cell lysates. IC50 values were calculated by nonlinear regression analysis using a 4-parameter logistic curve fit in ActivityBase XE (IDBS).

Row | IC50 [1] | IC50 [2] | IC50 [3] | IC50 (KDR) | IC50 (Met) | IC50 (AXL) | SMILES
1 | ≤ 10 nM | 10 to 100 nM | ≤ 10 nM |  |  |  | COc1cc2nccc(Oc3ccc(NC(=O)C4(C(=O)Nc5ccc(F)cc5)CC4)cc3)c2cc1C(=O)NCCN(C)C [Compound 10, 1-N-[4-[6-[2-(dimethylamino)ethylcarbamoyl]-7-methoxyquinolin-4-yl]oxyphenyl]-1-N′-(4-fluorophenyl)cyclopropane-1,1-dicarboxamide]
2 | ≤ 10 nM |  | ≤ 10 nM | ≤ 10 nM | 10 to 100 nM | ≤ 10 nM | COc1cc2nccc(Oc3ccc(NC(=O)C4(C(=O)Nc5ccc(F)cc5)CC4)cc3)c2cc1C(=O)NCCN1CCCCC1 [Compound 11, 1-N′-(4-fluorophenyl)-N-[4-[7-methoxy-6-(2-piperidin-1-ylethylcarbamoyl)quinolin-4-yl]oxyphenyl]cyclopropane-1,1-dicarboxamide]
3 | ≤ 10 nM |  | ≤ 10 nM | ≤ 10 nM | 10 to 100 nM | ≤ 10 nM | COc1cc2nccc(Oc3ccc(NC(=O)C4(C(=O)Nc5ccc(F)cc5)CC4)cc3)c2cc1C(=O)NCCN1CCOCC1 [Compound 12, 1-N′-(4-fluorophenyl)-1-N-[4-[7-methoxy-6-(2-morpholin-4-ylethylcarbamoyl)quinolin-4-yl]oxyphenyl]cyclopropane-1,1-dicarboxamide]
4 | ≤ 10 nM |  | ≤ 10 nM | 10 to 100 nM | 10 to 100 nM | ≤ 10 nM | COc1cc2nccc(Oc3ccc(NC(=O)C4(C(=O)Nc5ccc(F)cc5)CC4)cc3)c2cc1C(=O)NC[C@H]1CCCN1 [Compound 21, 1-N′-(4-fluorophenyl)-1-N-[4-[7-methoxy-6-[[(2R)-pyrrolidin-2-yl]methylcarbamoyl]quinolin-4-yl]oxyphenyl]cyclopropane-1,1-dicarboxamide]
5 | ≤ 10 nM |  | ≤ 10 nM | 10 to 100 nM | 10 to 100 nM | ≤ 10 nM | COc1cc2nccc(Oc3ccc(NC(=O)C4(C(=O)Nc5ccc(F)cc5)CC4)cc3)c2cc1C(=O)NC[C@@H]1CCCN1 [Compound 22, 1-N′-(4-fluorophenyl)-1-N-[4-[7-methoxy-6-[[(2S)-pyrrolidin-2-yl]methylcarbamoyl]quinolin-4-yl]oxyphenyl]cyclopropane-1,1-dicarboxamide]
6 | 10 to 100 nM | 100 to 1000 nM | 10 to 100 nM |  |  |  | NC(=O)c1cc2c(Oc3ccc(NC(=O)C4(C(=O)Nc5ccc(F)cc5)CC4)cc3)ccnc2cc1Cl [Compound 68, 1-N-[4-(6-carbamoyl-7-chloroquinolin-4-yl)oxyphenyl]-1-N′-(4-fluorophenyl)cyclopropane-1,1-dicarboxamide]
7 | 10 to 100 nM | 100 to 1000 nM | 10 to 100 nM |  |  |  | NC(=O)c1cc2c(Oc3ccc(NC(=O)C4(C(=O)Nc5ccc(F)cc5)CC4)cc3)ccnc2cc1Br [Compound 69, 1-N-[4-(7-bromo-6-carbamoylquinolin-4-yl)oxyphenyl]-1-N′-(4-fluorophenyl)cyclopropane-1,1-dicarboxamide]
8 | > 1000 nM | > 1000 nM | > 1000 nM |  |  |  | Cc1cc2c(Oc3ccc(NC(=O)C4(C(=O)Nc5ccc(F)cc5)CC4)cc3)ccnc2cc1C(=O)O [Compound 141, 4-[4-[[1-[(4-fluorophenyl)carbamoyl]cyclopropanecarbonyl]amino]phenoxy]-6-methylquinoline-7-carboxylic acid]
9 | 10 to 100 nM | 100 to 1000 nM | 100 to 1000 nM |  |  |  | O=C(O)c1ccc2c(Oc3ccc(NC(=O)C4(C(=O)Nc5ccc(F)cc5)CC4)cc3)ccnc2c1 [Compound 163, 4-[4-[[1-[(4-fluorophenyl)carbamoyl]cyclopropanecarbonyl]amino]phenoxy]quinoline-7-carboxylic acid]
